Experimental data published in patent publication US12534699B2, “Method for promoting growth of bacteria of genus Bifidobacterium” (KABUSHIKI KAISHA YAKULT HONSHA, priority 2019, dated 2026).

Tests used:
Assay type in all cases: cell-based
[1] = test system: Bifidobacterium bifidum YIT 10347 (BF-1); assay: Culture of BF-1 in skimmed milk culture medium with L-cystine or L-cysteine; details: for viable cell count and acidity versus culture medium not containing L-cystine and L-cysteine: BF-1, simultaneous heating culture medium (skimmed milk or whey), 0.001 to 0.1% (w/v), FIGS. 5 and 6; for concentration at which the viable cell count was maximum: BF-1, skimmed milk simultaneous heating culture medium, 12 hours
Experimental: (§1) Bifidobacterium breve YIT 12272 (hereinafter, referred to as BbY), Bifidobacterium bifidum YIT 10347 (hereinafter, referred to as BF-1), Lactobacillus casei YIT 9029 (hereinafter, referred to as YIT 9029), and Lactobacillus acidophilus YIT 0198 (hereinafter, referred to as YIT 0198) were used.
(§2) A skimmed milk powder (ABC, manufactured by MEGMILK SNOW BRAND Co., Ltd.) was dissolved in RO water at 12% (w/v), the solution was dispensed in 10 mL aliquots in a rimmed medium-sized test tube while replacing the headspace with nitrogen gas and sealed with a butyl rubber stopper. Subsequently, the solution was sterilized by heat in an autoclave (SX-500, manufactured by Tomy Seiko Co., Ltd.) at 115° C. for 30 minutes to provide a skimmed milk culture medium (additive-free culture medium). In addition, a skimmed milk culture medium (simultaneous heating culture medium) was prepared in anaerobic conditions by adding an L-cystine (manufactured by Kyowa Hakko Bio Co., Ltd.) aqueous suspension or an L-cysteine hydrochloride (manufactured by Nichiri Kagaku Co., Ltd.) aqueous solution to a skimmed milk culture medium at a final concentration of 0.05 (w/v) % and performing heat sterilization after the addition of the suspension or the solution, and a skimmed milk culture medium (individual heating culture medium) was prepared in anaerobic conditions by adding the suspension or the solution to a skimmed milk culture medium at a final concentration of 0.05 (w/v) % after heat sterilization and immediately before inoculation. Here, the L-cystine aqueous suspension and the L-cysteine hydrochloride aqueous solution were prepared as a 5% (w/v) aqueous suspension and a 5% (w/v) aqueous solution, respectively, and were added to each culture medium at an amount of 1% (v/v). In order to unify the changes in the concentration and the changes in the redox potential of samples due to the addition of the solution, 1% (v/v) of sterilized water was added to the simultaneous heating culture medium immediately before inoculation, to the individual heating culture medium before heating, and to the additive-free culture medium before heating and immediately before inoculation, i.e., twice.
(§3) When bacteria were inoculated, inoculation was performed while replacing the headspace of the container with nitrogen gas, and the nitrogen gas was sealed with a butyl rubber stopper, followed by culture. The culture was performed in a thermostat water bath set to 37° C. for 12 hours.
(§4) The pH of a culture medium or a bacterial solution was measured using a desk-top pH meter (F52, manufactured by HORIBA, Ltd.).
(§5) The amount of a 0.1 N sodium hydroxide aqueous solution for 9.0 g of a bacterial solution required to reach a pH of 8.5 was defined as acidity. The measurement was performed using an automatic titrator (manufactured by HIRANUMA Co., Ltd.).
(§6) Regardless of the bacterial strain, a bacterial solution was appropriately diluted with a 0.85% (w/v) sodium chloride aqueous solution (physiological saline solution). The diluted bacterial solution was inoculated with a spiral plater EDDY JET (manufactured by IUL Instruments GmbH) on a plate culture medium of TOS propionate agar medium (manufactured by Yakult Pharmaceutical Industry Co., Ltd.) in the case of bacteria of the genus Bifidobacterium and a plate culture medium of BCP Added Plate Count medium (manufactured by EIKEN CHEMICAL CO., LTD.) in the case of bacteria of the genus Lactobacillus, followed by culture at 37° C. for 48 to 72 hours. The grown colonies were counted as the viable cell count. The bacteria of the genus Lactobacillus were cultured in aerobic conditions, and the bacteria of the genus Bifidobacterium were cultured in anaerobic conditions (Anaero Pack, manufactured by MITSUBISHI GAS CHEMICAL COMPANY, INC.). Colonies were counted using a colony counter ProtoCOL (manufactured by Synoptics Ltd.).
As in Example 1, each simultaneous heating culture medium of milk and L-cystine or L-cysteine was prepared. […]

[2] = test system: Lactobacillus acidophilus YIT 0198; assay: Culture of YIT 0198 in skimmed milk culture medium with L-cystine or L-cysteine; details: YIT 0198, skimmed milk culture medium, 0.05 (w/v) %, 37° C., 12 hours, FIG. 1
Experimental: as §1
A skimmed milk powder (ABC, manufactured by MEGMILK SNOW BRAND Co., Ltd.) was dissolved in RO water at 12% (w/v), the solution was dispensed in 10 mL aliquots in a rimmed medium-sized test tube while replacing the headspace with nitrogen gas and sealed with a butyl rubber stopper. Subsequently, the solution was sterilized by heat in an autoclave (SX-500, manufactured by Tomy Seiko Co., Ltd.) at 115° C. for 30 minutes to provide a skimmed milk culture medium (additive-free culture medium). […]
The pH of a culture medium or a bacterial solution was measured using a desk-top pH meter (F52, manufactured by HORIBA, Ltd.). […]
Regardless of the bacterial strain, a bacterial solution was appropriately diluted with a 0.85% (w/v) sodium chloride aqueous solution (physiological saline solution). […] The grown colonies were counted as the viable cell count. […] Colonies were counted using a colony counter ProtoCOL (manufactured by Synoptics Ltd.).

[3] = test system: Bifidobacterium breve YIT 12272 (BbY); assay: Culture of BbY in skimmed milk culture medium with L-cystine or L-cysteine (simultaneous / individual heating); details: for growth rate of the viable cell count, simultaneous versus individual heating (growth curve): final concentration 0.03% (w/v), FIG. 2; for viable cell count and acidity versus culture medium not containing L-cystine and L-cysteine: simultaneous heating culture medium (skimmed milk or whey), 0.001 to 0.1% (w/v), FIGS. 3 and 4; for concentration at which the viable cell count was maximum: skimmed milk simultaneous heating culture medium, culture time 9 hours
Experimental: as §1
as §2, with “Subsequently, the solution was sterilized by heat in an autoclave (SX-500, manufactured by Tomy Seiko Co., Ltd.) at 115° C. for 30 minutes to provide a skimmed milk culture medium (additive-free culture medium).” left out
as §3, §4, §5, §6
As in Example 1, each simultaneous heating culture medium of milk and L-cystine or L-cysteine was prepared. The addition concentration of L-cystine or L-cysteine was adjusted to 0.001, 0.003, 0.005, 0.01, 0.03, 0.05, or 0.1% (w/v) as the final concentration. […]

[4] = BbY, milk, L-cysteine 0.03% (w/v), filter sterilization (0.22 μm, no heating), culture time 9 h
[5] = BbY, milk, L-cysteine 0.03% (w/v), filter sterilization (0.22 μm, no heating), culture time 12 h
[6] = BbY, milk, L-cysteine 0.03% (w/v), individual heating, culture time 9 h
[7] = BbY, milk, L-cysteine 0.03% (w/v), individual heating, culture time 12 h
[8] = BbY, milk, L-cysteine, simultaneous heating, culture time 9 h
[9] = BbY, milk, L-cysteine, simultaneous heating, culture time 12 h
[10] = BF-1, skimmed milk, 0.05 (w/v) %, cultured 12 hours
[11] = BbY, skimmed milk, 0.05 (w/v) %, cultured 12 hours
[12] = BbY, skimmed milk, L-cystine 0.03% (w/v), 115° C. for 30 min, after heat sterilization (individual heating), 12 hours
[13] = BbY, skimmed milk, L-cystine 0.03% (w/v), 115° C. for 30 min, before heat sterilization (simultaneous heating), 12 hours
[14] = BbY, skimmed milk, L-cystine 0.03% (w/v), 121° C. for 30 min, after heat sterilization (individual heating), 12 hours
[15] = BbY, skimmed milk, L-cystine 0.03% (w/v), 121° C. for 30 min, before heat sterilization (simultaneous heating), 12 hours

Question: Which “viable cell count and acidity versus culture medium not containing L-cystine and L-cysteine” value [1] does the source give for `Cl.N[C@@H](CS)C(=O)O` [L-cysteine, L-cysteine hydrochloride] here?
Answer: Its value is “increased”.

Question: What about the “concentration at which the viable cell count was maximum” value (from here on “concentration”) [1] of the same molecule?
Answer: Its value is 0.05 % (w/v).

Question: What about the “growth promotion by addition” value [2] of the same molecule?
Answer: The value was “not observed”.

Question: And the “growth rate of the viable cell count, simultaneous versus individual heating (growth curve)” value ([3]; BbY)?
Answer: Its value is “higher in the case of the simultaneous heating”.

Question: What about the Acidity [3, 4] of the same molecule?
Answer: Its Acidity is 3.62 ml/9 g.

Question: What about the Viable cell count [3, 4] of the same molecule?
Answer: Its Viable cell count is 8.92 × 10^8 CFU/ml.

Question: And the pH [3, 4]?
Answer: Its pH is 5.40.

Question: And the Acidity [3, 5]?
Answer: The Acidity was 5.12 ml/9 g.

Question: And the Viable cell count [3, 5]?
Answer: Its Viable cell count is 1.64 × 10^9 CFU/ml.

Question: What about the pH [3, 5] of the same molecule?
Answer: Its pH is 4.94.

Question: What about the Acidity [3, 6] of the same molecule?
Answer: The Acidity was 3.59 ml/9 g.

Question: What about the Viable cell count [3, 6] of the same molecule?
Answer: Its Viable cell count is 7.77 × 10^8 CFU/ml.

Question: What about the pH [3, 6] of the same molecule?
Answer: Its pH is 5.42.

Question: What about the Acidity [3, 7] of the same molecule?
Answer: The Acidity was 5.04 ml/9 g.

Question: And the Viable cell count [3, 7]?
Answer: Its Viable cell count is 1.78 × 10^9 CFU/ml.

Question: What about the pH [3, 7] of the same molecule?
Answer: The pH was 5.02.

Question: What about the Acidity [3, 8] of the same molecule?
Answer: The Acidity was 4.47 ml/9 g.

Question: What about the Viable cell count [3, 8] of the same molecule?
Answer: Its Viable cell count is 1.34 × 10^9 CFU/ml.

Question: What about the pH [3, 8] of the same molecule?
Answer: The pH was 5.17.

Question: What about the Acidity [3, 9] of the same molecule?
Answer: The Acidity was 8.05 ml/9 g.

Question: What about the Viable cell count [3, 9] of the same molecule?
Answer: Its Viable cell count is 3.46 × 10^9 CFU/ml.

Question: And the pH [3, 9]?
Answer: The pH was 4.64.

Question: And the “viable cell count and acidity versus culture medium not containing L-cystine and L-cysteine” value ([3]; BbY)?
Answer: Its value is “increased”.

Question: And the “concentration” value ([3]; BbY)?
Answer: The value was 0.03 % (w/v).

Question: What about the “promotion of growth by simultaneous heating with milk” value ([3]; FIGS. 1 and 2) of the same molecule?
Answer: Its value is “promotion of growth was observed”.

Question: What about the “difference in the culture state of BbY, individual heating versus filter sterilization” value ([3]; L-cysteine added to milk at 0.03% (w/v)) of the same molecule?
Answer: The value was “no difference”.

Question: Which “viable cell count and acidity versus culture medium not containing L-cystine and L-cysteine” value [1] does the source give for `N[C@@H](CSSC[C@H](N)C(=O)O)C(=O)O` [L-cystine] here?
Answer: Its value is “increased”.

Question: What about the “concentration” value [1] of the same molecule?
Answer: The value was 0.1 % (w/v).

Question: And the “acidity higher with simultaneous heating than individual heating” value [1, 10]?
Answer: The value was 1.3 times.

Question: What about the “viable cell count higher with simultaneous heating than individual heating” value [1, 10] of the same molecule?
Answer: Its value is 4.5 times.

Question: And the “growth promotion by addition” value [2]?
Answer: The value was “not observed”.

Question: And the “growth rate of the viable cell count, simultaneous versus individual heating (growth curve)” value ([3]; BbY)?
Answer: The value was “higher in the case of the simultaneous heating”.

Question: What about the “viable cell count and acidity versus culture medium not containing L-cystine and L-cysteine” value ([3]; BbY) of the same molecule?
Answer: Its value is “increased”.

Question: What about the “concentration” value ([3]; BbY) of the same molecule?
Answer: Its value is 0.01 % (w/v).

Question: What about the “acidity higher with simultaneous heating than individual heating” value [3, 11] of the same molecule?
Answer: The value was 1.3 mL/9 g.

Question: What about the “viable cell count increase compared to absence of L-cystine” value [3, 11] of the same molecule?
Answer: Its value is 5.6 times.

Question: What about the “viable cell count, simultaneous heating versus individual heating” value [3, 11] of the same molecule?
Answer: Its value is “the same”.

Question: And the Acidity [3, 12]?
Answer: Its Acidity is 3.82 mL/9 g.

Question: What about the Viable cell count [3, 12] of the same molecule?
Answer: Its Viable cell count is 1.29 × 10^9 CFU/mL.

Question: What about the pH [3, 12] of the same molecule?
Answer: The pH was 5.34.

Question: And the Acidity [3, 13]?
Answer: The Acidity was 5.40 mL/9 g.

Question: What about the Viable cell count [3, 13] of the same molecule?
Answer: Its Viable cell count is 1.89 × 10^9 CFU/mL.

Question: And the pH [3, 13]?
Answer: Its pH is 5.00.

Question: What about the Acidity [3, 14] of the same molecule?
Answer: The Acidity was 4.00 mL/9 g.

Question: And the Viable cell count [3, 14]?
Answer: The Viable cell count was 1.12 × 10^9 CFU/mL.

Question: And the pH [3, 14]?
Answer: Its pH is 5.26.

Question: What about the Acidity [3, 15] of the same molecule?
Answer: The Acidity was 5.42 mL/9 g.

Question: And the Viable cell count [3, 15]?
Answer: The Viable cell count was 1.86 × 10^9 CFU/mL.

Question: And the pH [3, 15]?
Answer: The pH was 4.96.
